ChEMBL document CHEMBL4014354, “2'-Chloro,2'-fluoro Ribonucleotide Prodrugs with Potent Pan-genotypic Activity against Hepatitis C Virus Replication in Culture” (J Med Chem, 2017)

Legend:
[1] = Metabolic stability in human blood assessed as compound remaining at 2 uM after 2 hrs by LC-MS/MS method; format: ADME, tissue-based; conditions: read-out: Stability
[2] = Inhibition of wild type HCV genotype 2a NS5B; set-up: species or system Hepatitis C virus subtype 2a
DNA polymerase beta = DNA polymerase beta (Homo sapiens, UniProt P06746); assay: Inhibition of human DNA polymerase beta using 5' end radiolabeled 24nt DNA/48nt DNA as primer/template after 5 mins by PAGE analysis
[3] = Inhibition of human DNA polymerase gamma using 5' end radiolabeled 24nt DNA/36nt DNA as primer/template after 120 mins by PAGE analysis
[4] = Inhibition of HCV genotype 1b NS5B S96T mutant; set-up: species or system Hepatitis C virus subtype 1b
[5] = biological target: T1, DNA polymerase alpha catalytic subunit (Homo sapiens, UniProt P09884); assay: Inhibition of human DNA polymerase alpha using 5' end radiolabeled 24nt DNA/48nt DNA as primer/template after 5 mins by PAGE analysis
T1 sequence (P09884 whole entry): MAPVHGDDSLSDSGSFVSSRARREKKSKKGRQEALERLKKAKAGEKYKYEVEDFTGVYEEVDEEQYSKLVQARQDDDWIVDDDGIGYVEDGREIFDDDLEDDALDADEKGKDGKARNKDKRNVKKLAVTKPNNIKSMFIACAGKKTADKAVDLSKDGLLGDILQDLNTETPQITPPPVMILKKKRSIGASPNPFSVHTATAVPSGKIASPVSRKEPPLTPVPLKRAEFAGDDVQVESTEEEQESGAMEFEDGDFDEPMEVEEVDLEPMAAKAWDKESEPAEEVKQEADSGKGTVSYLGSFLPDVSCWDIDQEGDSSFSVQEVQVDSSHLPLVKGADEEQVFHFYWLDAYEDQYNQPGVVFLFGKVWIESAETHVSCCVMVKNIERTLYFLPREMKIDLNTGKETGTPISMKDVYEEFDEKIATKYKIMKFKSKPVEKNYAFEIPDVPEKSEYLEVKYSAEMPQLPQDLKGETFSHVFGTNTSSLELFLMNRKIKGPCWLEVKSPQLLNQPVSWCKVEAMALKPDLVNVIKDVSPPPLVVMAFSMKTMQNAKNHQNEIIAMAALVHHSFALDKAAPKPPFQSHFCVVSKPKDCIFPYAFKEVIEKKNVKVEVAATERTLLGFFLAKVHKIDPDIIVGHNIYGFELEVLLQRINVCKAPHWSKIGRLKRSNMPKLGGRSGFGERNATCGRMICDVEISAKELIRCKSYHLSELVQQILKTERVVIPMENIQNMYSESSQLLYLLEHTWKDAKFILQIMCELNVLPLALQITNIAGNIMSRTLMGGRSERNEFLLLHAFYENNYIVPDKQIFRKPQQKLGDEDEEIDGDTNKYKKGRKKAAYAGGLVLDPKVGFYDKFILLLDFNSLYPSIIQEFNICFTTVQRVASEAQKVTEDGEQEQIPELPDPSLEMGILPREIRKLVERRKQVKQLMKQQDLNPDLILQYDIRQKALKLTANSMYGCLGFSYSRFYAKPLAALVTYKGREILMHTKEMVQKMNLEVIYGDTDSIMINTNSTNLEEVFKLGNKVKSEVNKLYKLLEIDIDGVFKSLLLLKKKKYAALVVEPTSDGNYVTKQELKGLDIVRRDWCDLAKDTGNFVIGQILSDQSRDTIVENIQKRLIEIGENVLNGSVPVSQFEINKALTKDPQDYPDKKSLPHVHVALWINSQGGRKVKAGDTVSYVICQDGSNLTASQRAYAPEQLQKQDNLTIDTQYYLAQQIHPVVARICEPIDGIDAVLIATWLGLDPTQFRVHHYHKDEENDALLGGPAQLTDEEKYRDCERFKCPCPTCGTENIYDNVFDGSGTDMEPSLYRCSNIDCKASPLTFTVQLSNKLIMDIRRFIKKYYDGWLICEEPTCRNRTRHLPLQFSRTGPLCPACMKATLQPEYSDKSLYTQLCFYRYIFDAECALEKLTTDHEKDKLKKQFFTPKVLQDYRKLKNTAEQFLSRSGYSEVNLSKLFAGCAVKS

[6] = biological target: DNA-directed RNA polymerase, mitochondrial (Homo sapiens) (UniProt O00411); assay: Inhibition of human POLRMT using 5'-P32-RNA/DNA hybrid assessed as incorporation of UTP at 100 uM after 2 hrs by scintillation counting method relative to control; set-up: scale not given: the % may be the effect or the level left
Sequence of DNA-directed RNA polymerase, mitochondrial (Homo sapiens) (O00411 whole entry): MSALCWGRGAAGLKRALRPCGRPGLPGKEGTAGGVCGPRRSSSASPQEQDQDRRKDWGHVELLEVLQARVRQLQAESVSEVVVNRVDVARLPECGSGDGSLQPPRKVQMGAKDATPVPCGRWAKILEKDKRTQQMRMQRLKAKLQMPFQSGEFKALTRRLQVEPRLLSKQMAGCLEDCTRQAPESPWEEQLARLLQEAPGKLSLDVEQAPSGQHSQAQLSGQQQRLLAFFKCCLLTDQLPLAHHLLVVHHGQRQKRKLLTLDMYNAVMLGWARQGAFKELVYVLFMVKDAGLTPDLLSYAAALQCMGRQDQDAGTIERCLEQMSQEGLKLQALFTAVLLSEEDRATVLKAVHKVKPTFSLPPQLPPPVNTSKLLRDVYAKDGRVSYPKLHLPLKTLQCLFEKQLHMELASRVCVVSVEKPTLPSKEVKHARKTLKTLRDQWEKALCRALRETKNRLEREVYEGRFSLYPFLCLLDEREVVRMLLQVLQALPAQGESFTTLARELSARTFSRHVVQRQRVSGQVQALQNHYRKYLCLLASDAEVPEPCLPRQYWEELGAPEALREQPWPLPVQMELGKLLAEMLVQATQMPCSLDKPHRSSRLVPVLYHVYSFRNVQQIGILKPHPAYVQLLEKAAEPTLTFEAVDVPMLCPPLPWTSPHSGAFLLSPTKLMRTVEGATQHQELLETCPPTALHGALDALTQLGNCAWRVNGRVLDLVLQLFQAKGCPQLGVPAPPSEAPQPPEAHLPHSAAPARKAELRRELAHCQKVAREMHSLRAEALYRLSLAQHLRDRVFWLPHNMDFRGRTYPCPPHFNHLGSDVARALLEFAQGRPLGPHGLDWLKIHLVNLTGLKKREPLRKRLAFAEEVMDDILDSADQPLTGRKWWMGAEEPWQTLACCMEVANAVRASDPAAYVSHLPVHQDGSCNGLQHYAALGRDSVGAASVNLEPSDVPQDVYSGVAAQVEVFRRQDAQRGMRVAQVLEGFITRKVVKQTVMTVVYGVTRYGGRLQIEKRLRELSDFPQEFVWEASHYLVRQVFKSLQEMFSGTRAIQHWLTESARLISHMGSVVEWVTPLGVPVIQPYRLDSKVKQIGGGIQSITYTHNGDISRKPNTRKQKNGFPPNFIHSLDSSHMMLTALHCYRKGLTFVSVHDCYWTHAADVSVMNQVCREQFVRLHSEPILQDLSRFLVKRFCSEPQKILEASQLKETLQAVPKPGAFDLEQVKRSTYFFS

[7] = Inhibition of wild type HCV genotype 4a NS5B; set-up: species or system Hepatitis C virus subtype 4a
[8] = Inhibition of RNA polymerase 2 isolated from human HeLa cell nuclear extract assessed as decrease in incorporation of P32-alpha-CTP after 2 hrs by scintillation counting method; format: cell-free
[9] = Inhibition of C-terminal His-tagged HCV genotype 1b NS5Bdelta21 expressed in Escherichia coli BL21 (DE3) using synthetic 20mer RNA/[32P]GpG as template/primer after 90 mins by PAGE analysis; set-up: species or system Hepatitis C virus subtype 1b

| remaining at 2 h, 2 µM [1] [%] | SMILES | IC50 [2] [µM] | IC50 (DNA polymerase beta) [µM] | IC50 [3] [µM] | IC50 [4] [µM] | IC50 [5] [µM] | Activity [6] [%] | IC50 [7] [µM] | IC50 [8] [µM] | IC50 [9] [µM] |
| --- | --- | --- | --- | --- | --- | --- | --- | --- | --- | --- |
| 19 | CC1CC(OC(=O)C(O)c2ccccc2)CC(C)(C)N1C (stereo not given) [EUCATROPINE] | – | – | – | – | – | – | – | – | – |
| – | O=c1ccn([C@@H]2O[C@H](COP(=O)(O)OP(=O)(O)OP(=O)(O)O)C(O)C2(F)Cl)c(=O)[nH]1 (single isomer, unassigned) | 6.1 | > 100 | > 100 | 13 | 20.2 | 35 | 8.6 | > 100 | 5.5 |
